Assay results published in paper PMC10005222, “Development of a Novel Apigenin Dosage form as a Substitute for the Modern Triple Antithrombotic Regimen” (Molecules, 2023).

Experiments:
[1] = tested on: TRAP-6-induced platelet aggregation; test: TRAP-6-induced platelet aggregation in PRP (light transmittance aggregometry); format: cell-based, human; details: for IC50: Homo sapiens, TRAP-6 10 μM, PRP, 1 min pre-incubation, mean ± SD, three platelet preparations; for enhanced inhibitory activity with respect to DHA: TRAP-6 induced platelet aggregation
Method: (§1) The antiplatelet activity of DHA-apigenin, apigenin, DHA, and equimolar solution of apigenin/DHA was studied in platelet rich plasma (PRP) by light transmittance aggregometry (LTA) assay, as previously described. Briefly, PRP was prepared from peripheral venous blood of apparently healthy normolipidemic volunteers. The platelets of PRP were adjusted to a final concentration of 2.5 × 10^8 per Ml with homologous platelet-poor plasma (PPP). The PRP was then pre-incubated with each one of the compounds for 1 min before the initiation of aggregation. The final DMSO concentration in each assay was <0.5% (v/v). In the control experiments, the PRP was incubated with each one of the compounds for 5 min in order to evaluate whether each tested compound was a platelet activator. Platelet aggregation induced by ADP (10 Μm), AA (500 Μm), and TRAP-6 (10 Μm) was determined in aliquots of 0.5 Ml of PRP, at 37 °C under continuous stirring at 1200 rpm, in a Chronolog Lumi-Aggregometer (model 700 4-channel) equipped with the AggroLink software package. The maximal aggregation, achieved within 4 min after the addition of each agonist, was determined and expressed as a percentage of 100% light transmission calibrated for each specimen (maximal percentage of aggregation; MPA). Τhe inhibitory efficacy of each compound tested was also expressed as IC50 values (concentration that induces 50% inhibition of platelet aggregation). All aggregation studies were conducted within 3 h after blood was drawn. The inhibition of platelet aggregation (IPA) values induced by each compound was calculated using the […].

[2] = tested on: ADP-induced platelet aggregation; test: ADP-induced platelet aggregation in PRP (light transmittance aggregometry); format: cell-based, human; details: for IC50: Homo sapiens, ADP 10 μM, PRP, 1 min pre-incubation, mean ± SD, three platelet preparations
Method: as §1

[3] = tested on: AA-induced platelet aggregation; test: AA-induced platelet aggregation in PRP (light transmittance aggregometry); format: cell-based, human; details: for IC50: Homo sapiens, AA 500 μM, PRP, 1 min pre-incubation, mean ± SD, three platelet preparations
Method: as §1

[4] = Serum pharmacokinetics after oral administration in C57BL/6J mice; format: in vivo; details: oral 50 mg/kg in olive oil; for Tmax / half-life / AUC(0-t) / Vd/F / Cmax / AUC(0-inf): male, mouse; for AUC(0-t): 0-6 h, read-out: AUC0−t, Estimate (%CV); for Vd/F / Cl/F: normalized to fraction absorbed; for Vd/F: read-out: Vz/F; for Cmax: read-out: Cmax, Estimate (%CV); for AUC(0-inf): to be considered with caution (high extrapolation); for AUC % extrapolated: based on λz, 50 mg/kg
Method: For the detection of the conjugate, the EVOQ Elite ER TQ (Bruker) mass spectrometer was operated in negative ionization electrospray mode (ESI) under multiple reaction monitoring (MRM). […] Optimum ESI conditions were determined as follows: spray voltage, 4500 V; heated probe gas flow, 50 units; heated probe temperature 350℃; cone gas flow, 20 units; cone temperature, 200 °C; nebulizer gas flow, 40 units. Total control of LC and MS, as well as data acquisition, were performed with MSWS software, Version 8.2.1 (Bruker). For the pharmacokinetic studies, a Xevo-G2-XS-QtoF mass spectrometer, coupled to a Waters UPLC I-Class Binary Solvent Manager (Waters Corp., Milford, MA, USA) was used. The mobile phases were composed of water (LC-MS grade) with formic acid 0.1% (A), and acetonitrile (LC-MS grade) with formic acid 0.1% (B). A constant flow of […] was used, with an injection volume of 1 μL; the gradient was as follows: initial phase (B) concentration 20%, increased to 100% within 1.5 min, then kept constant for 1 min, and reduced to 20% until the end of the run (4 min total runtime). The MS conditions were as follows: the scan range was set at m/z 100–600, and the source voltage was 0.8 Kv in negative ionization electrospray mode (ESI). The source temperature was 550 °C, the flow of desolvation gas (N2) was set to 1000 L per hour, and the cone gas flow was set to 20 L per hour. For MS/MS, the collision energy ramp was set from 20 eV to 40 eV, and the declustering potential was 40 V. The column used was the Acquity UPLC® BEH C18 1.7 µm device. For the post processing and analysis of the acquisition data, UNIFY soFTware was used.
60 male 8-week-old C57BL/6J wild type mice, with mean weight equal to 23.5 ± 2.1 g were randomly divided in two groups (a, b) of 30 and each one received different treatment as follows: (a) the apigenin hybrid formulation and (b) the parent apigenin, dissolved in extra virgin olive oil, orally via the gavage technique at the dose of 50 mg/kg. Mice in each group were randomly further divided in 6 subgroups of five, each group representing one sampling time point (15, 30, 60, 120, 240, and 360 min). Animals were anaesthetized with sevoflurane, and sacrificed to collect blood samples via cardiac puncture, in non-heparinized Eppendorf ® Tubes, at the time point of interest after administration. Blood samples were centrifuged (10,000× g rpm, 15 min, 4 °C), and serum was collected, frozen and stored at −70 °C until further processing. In order to quench the reactions, 395 μL of MeOH were added to each sample, along with IS (5 μL of Rosmarinic acid). The samples were vortexed and centrifuged at 10,000× g for 10 min. Then, the supernatant was taken, filtered and transferred to vials for analysis, as described above.
The Phoenix^TM (www.certara.com)®. software was used for data analysis using non-compartmental PK analysis (NCA). More specifically, sparse sampling NCA was performed to determine basic serum PK parameters, namely AUC0−t, AUCinf, Cmax and Tmax, and to calculate the relative oral bioavailability of apigenin after apigenin hybrid formulation and native apigenin oral administration. To calculate the PK parameters and their standard errors (SE), the mean concentration curve is calculated and used in conjunction with the available subject information. The log-linear trapezoidal method was used to calculate AUC0−t and AUCinf, with extrapolation to infinity by dividing the last concentration by the terminal slope, λz (kel, estimated by linear regression analysis on the last three points of the log-transformed concentration vs. time plot).

[5] = Human plasma stability assay (LC-MS/MS); format: in vitro ADME; details: 37 °C
Method: Liquid chromatography was performed using an Advance Ultra High Performance Liquid Chromatography (UHPLC) system (Bruker, Germany). The column oven was set at 40 °C. For the separation, a Kinetex C18 column 100 mm × 2.1 mm, 2.6 μm, with a 2.1 mm pro-guard column, was used (Phenomenex). The mobile phases were composed of water (LC-MS grade) with formic acid 0.1% (A) and MeOH (B). The gradient followed at a constant flow of […] was: initial phase (B) concentration 5%, increased to 100% within 1 min, then kept constant for 5.5 min, and reduced to 5% until the end of the run. […] The injection volume was 2 μL, while the auto-sampler temperature was 15 °C.
For the detection of the conjugate, the EVOQ Elite ER TQ (Bruker) mass spectrometer was operated in negative ionization electrospray mode (ESI) under multiple reaction monitoring (MRM). […] Optimum ESI conditions were determined as follows: spray voltage, 4500 V; heated probe gas flow, 50 units; heated probe temperature 350℃; cone gas flow, 20 units; cone temperature, 200 °C; nebulizer gas flow, 40 units. Total control of LC and MS, as well as data acquisition, were performed with MSWS software, Version 8.2.1 (Bruker). […]
The in vitro stability of the apigenin molecular hybrid was evaluated in human plasma (Ph was adjusted to 7.4) at 37 °C. […]

[6] = ADP-induced platelet aggregation

| SMILES | IC50 [1] | IC50 [2] | IC50 [3] | Tmax [4] | half-life [4] | AUC(0-t) [4] | Vd/F [4] | Cmax [4] | AUC(0-inf) [4] | Cl/F [4] | also measured |
| --- | --- | --- | --- | --- | --- | --- | --- | --- | --- | --- | --- |
| CC/C=C\C/C=C\C/C=C\C/C=C\C/C=C\C/C=C\CCC(=O)O [DHA, Cis-4,7,10,13,16,19-Docosahexanoic acid, reference compound] | 680 ± 42 µM | 920 ± 53 µM | 130 ± 18 µM | – | – | – | – | – | – | – | – |
| O=c1cc(-c2ccc(O)cc2)oc2cc(O)cc(O)c12 [Apigenin, apigenin] | 56 ± 8 µM | 607 ± 35 µM | 850 ± 45 µM | 2 h | 3.44 h | 35 ng·h/mL | 106 L | 10.8 ng/mL | 58.8 ng·h/mL | 21.3 L/h | AUC % extrapolated [4]: 40%; AUC % extrapolated ([4]; listed as native apigenin): 40.5% |
| CC/C=C\C/C=C\C/C=C\C/C=C\C/C=C\C/C=C\CCC(=O)Oc1ccc(-c2cc(=O)c3c(O)cc(O)cc3o2)cc1 [4′-DHA-apigenin hybrid, 4′-DHA-apigenin] | 52 ± 12 µM | 362 ± 20 µM | 353 ± 36 µM | 2 h | 17.4 h | 91.7 ng·h/mL | 66.5 L | 17.8 ng/mL | 471 ng·h/mL | 2.65 L/h | enhancement with respect to native apigenin ([1]; TRAP-6): 2 fold; enhanced inhibitory activity with respect to DHA [1]: more than 12 fold; enhanced inhibitory activity with respect to DHA ([1]; listed as 4′-DHA-apigenin): 12 fold; enhanced inhibitory activity with respect to DHA [2, 6]: ~3 fold; enhanced inhibitory activity with respect to apigenin [2, 6]: ~2 fold; parent compound still present ([5]; after 30 min of incubation): 17.3%; half-life at 5 µM ([5]; pH 7.4, read-out: t1/2 in human plasma): ~0.217 h; enhanced inhibitory activity with respect to apigenin ([3]; AA-induced platelet aggregation): 2 fold; AUC % extrapolated ([4]; listed as 4′-DHA-Apigenin): 80%; AUC % extrapolated ([4]; listed as 4′-DHA-apigenin): 80.5% |
